Measured values published in ChEMBL document CHEMBL1130536 (Bioorg Med Chem Lett, 1997).

Assays:
[1] = target: Glutamate NMDA receptor; assay: Binding affinity against glycine binding site of NMDA receptor using [3H]glycine; format: protein-complex assay, Rattus norvegicus
[2] = species: Mus musculus; assay: The compound was tested for Mean effective dose which protects the mice against seizures induced by Maximum electroshock (MES); format: functional
[3] = tested on: Mus musculus; assay: Mean effective dose that protects 50% of the mice against AMPA-induced lethality when it administered ip, 60 minutes prior to application of AMPA icv; format: functional
[4] = target: Glutamate receptor ionotropic AMPA (Homo sapiens, UniProt P42261+P42262+P42263+P48058)
Description: In vitro binding affinity against AMPA receptor by [3H]AMPA displacement.

[5] = species: Mus musculus; assay: The compound was tested for Mean effective dose which protects the mice against seizures induced by Maximum electroshock; format: functional
[6] = species: Mus musculus; assay: Percent protection of the mice against seizures induced by Maximum electroshock, by the compound was determined; format: functional

Row | Structure (SMILES) | Ki [1] [µM] | ED50 [2] [mg/kg] | ED50 [3] [mg/kg] | Ki [4] [nM] | ED50 [5] [mg/kg] | Protection [6] [%]
1 | O=C(O)Cn1c(=O)c(=O)[nH]c2cc([N+](=O)[O-])c(-n3ccc(C(=O)O)c3)cc21 | > 30 | 2.4 | 1.4 |  |  | 
2 | CCOC(=O)Cn1c(=O)c(=O)[nH]c2cc([N+](=O)[O-])c(-n3ccc(C(=O)O)c3)cc21 |  |  |  | 215 |  | 
3 | O=C(O)Cn1c(=O)c(=O)[nH]c2cc(C(F)(F)F)c(-n3ccc(CNC(=O)Nc4ccc(C(=O)O)cc4)c3)cc21 | > 30 | 1.4 | 0.27 | 7 |  | 
4 | O=C(O)Cn1c(=O)c(=O)[nH]c2cc(C(F)(F)F)c(-n3ccc(CNC(=O)Nc4cccc(C(=O)O)c4)c3)cc21 | > 30 | 13.5 | 3.5 | 20 |  | 
5 | CCOC(=O)c1ccc(NC(=O)NCc2ccn(-c3cc4nc(O)c(O)nc4cc3C(F)(F)F)c2)cc1 |  |  |  | 450 |  | 
6 | CCOC(=O)Cn1c(=O)c(=O)[nH]c2cc(C(F)(F)F)c(-n3ccc(C(=O)O)c3)cc21 | > 30 |  |  | 1500 |  | 
7 | O=C(O)Cn1c(=O)c(=O)[nH]c2cc(C(F)(F)F)c(-n3ccc(C(=O)O)c3)cc21 | > 30 | 2.4 | 2.3 | 66 |  | 
8 | O=C(NCc1ccn(-c2cc3nc(O)c(O)nc3cc2C(F)(F)F)c1)Nc1ccc(C(=O)O)cc1 | > 30 |  | ~11 | 54 | 46 | 0
9 | O=C(O)c1ccn(-c2cc3nc(O)c(O)nc3cc2[N+](=O)[O-])c1 | > 30 |  | 17 | 60 |  | 
10 | CCOC(=O)c1cccc(NC(=O)NCc2ccn(-c3cc4c(cc3C(F)(F)F)[nH]c(=O)c(=O)n4CC(=O)O)c2)c1 | > 30 | 28.5 | 2.9 | 4 |  | 
11 | CCOC(=O)c1ccc(NC(=O)NCc2ccn(-c3cc4c(cc3C(F)(F)F)[nH]c(=O)c(=O)n4CC(=O)O)c2)cc1 | > 30 |  | 0.8 | 4 |  | 
12 | NS(=O)(=O)c1cccc2c1c([N+](=O)[O-])cc1nc(O)c(O)nc12 [NBQX] | 33 |  |  |  | 46 | 31
13 | O=c1[nH]c2cc(-n3ccnc3)c([N+](=O)[O-])cc2[nH]c1=O [YM-90K] | 7.4 |  | 13 |  |  | 
